Test results as given in patent publication US8628767B2, “Purine nucleoside phosphorylase as enzymatic activator of nucleoside prodrugs” (priority 2008, dated 2014).
Numbering of substitutions follows the chain as printed. Names and notes keep the numbering of the source. Where two headings read alike, the source gives them in different places.

Legend:
T. vaginalis PNP = test: Substrate cleavage by wild-type Tv-PNP (HPLC); type: biochemical, Trichomonas vaginalis; settings: 100 micromolar substrate, HPLC separation of base from nucleoside
Protocol: (§1) The method quantitatively measures the cleavage of substrates in vitro. The purine analog nucleosides (0.1 mM in 500 μl of 100 mM HEPES, pH 7.4, 50 mM potassium phosphate) are combined with 100 μg/ml Tv-PNP or wild-type E. coli PNP. The reaction mixtures are incubated at 25° C. for 1 hour, and the reactions stopped by boiling each sample for 2 minutes. Protein concentration and time of assay are varied depending on activity of enzyme for a particular substrate. Each sample is analyzed by reverse phase HPLC to measure conversion from substrate to product. The nucleoside and purine analogs are eluted from a Spherisorb ODSI (5 μm) column (Keystone Scientific, Inc., State College, Pa.) with a solvent containing 50 mM ammonium dihydrogen phosphate (95%) and acetonitrile (5%). Products are detected by absorbance at 254 nm, and are identified by comparing their retention times and absorption spectra with authentic control samples.
Numerous compounds are tested for efficiency as substrate for Tv-PNP in parallel comparison with E. coli PNP. The compounds include various analogs of adenosine, of inosine, of MeP-dR, and of fluoro- or chloro-substituted adenosine. The enzymes are incubated with 100 micromolar of each compound listed in the table and the rate of enzymatic cleavage is determined by HPLC separation of the base from the nucleoside. […] It is appreciated that the greater biological activity of the Tv-PNP enzyme allows for greater activity in impairing abnormal cell growth when the Tv-PNP is used for treatment of pathological conditions using F-araA as a prodrug substrate.

E. coli PNP = E. coli PNP (Escherichia coli, UniProt P0ABP8); test: Substrate cleavage by wild-type E. coli PNP (HPLC); type: biochemical; settings: 100 micromolar substrate, HPLC separation of base from nucleoside
Protocol: as §1
Numerous compounds are tested for efficiency as substrate for Tv-PNP in parallel comparison with E. coli PNP. […] The enzymes are incubated with 100 micromolar of each compound listed in the table and the rate of enzymatic cleavage is determined by HPLC separation of the base from the nucleoside.

[1] = Cleavage of MeP-dR by PNPs of various origins (HPLC); type: biochemical; settings: 100 μM MeP-dR, enzymes of various purities
[2] = Cleavage of F-araA by PNPs of various origins (HPLC); type: biochemical; settings: for F-araA rate of cleavage: 100 μM F-araA, enzymes of various purities
[3] = equimolar quantities of substrate

Sequence of E. coli PNP (P0ABP8 whole entry): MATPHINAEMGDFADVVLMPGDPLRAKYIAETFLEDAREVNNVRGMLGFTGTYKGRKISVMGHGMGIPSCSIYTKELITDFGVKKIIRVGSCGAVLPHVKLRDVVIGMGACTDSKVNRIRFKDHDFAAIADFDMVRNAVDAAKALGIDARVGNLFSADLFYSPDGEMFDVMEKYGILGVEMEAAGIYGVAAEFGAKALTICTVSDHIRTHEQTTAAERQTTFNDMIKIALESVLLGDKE

Molecule: Cc1ncnc2c1ncn2[C@@H]1O[C@@H](CO)[C@@H](O)[C@H]1O [9-α-L-lyxofuranosyl-6-methylpurine]
- rate of enzymatic cleavage by T. vaginalis PNP (T. vaginalis PNP): 10,000 nanomoles per milligrams per hour
- rate of enzymatic cleavage by E. coli PNP (E. coli PNP): 320 nanomoles per milligrams per hour

Molecule: Nc1nc2c(ncn2[C@@H]2O[C@H](CO)[C@@H](O)[C@@H]2O)c(=O)[nH]1 [9-β-D-arabinofuranosyl-guanine]
- rate of enzymatic cleavage by T. vaginalis PNP (T. vaginalis PNP): 16 nanomoles per milligrams per hour
- rate of enzymatic cleavage by E. coli PNP (E. coli PNP): 310 nanomoles per milligrams per hour

Molecule: O=c1[nH]cnc2c1ncn2[C@@H]1O[C@H](CO)[C@@H](O)[C@@H]1O [9-β-D-arabinofuranosyl-hypoxanthine]
- rate of enzymatic cleavage by T. vaginalis PNP (T. vaginalis PNP): 48 nanomoles per milligrams per hour
- rate of enzymatic cleavage by E. coli PNP (E. coli PNP): 61 nanomoles per milligrams per hour

Molecule: Nc1ncnc2c1ncn2[C@@H]1O[C@H](CO)C[C@H]1O [3′-deoxyadenosine (cordycepin), 3′-deoxyadenosine, reference compound]
- rate of enzymatic cleavage by T. vaginalis PNP (T. vaginalis PNP): 2,000 nanomoles per milligrams per hour
- rate of enzymatic cleavage by E. coli PNP (E. coli PNP): <2 nanomoles per milligrams per hour

Molecule: Nc1nc2c(ncn2[C@@H]2O[C@H](CO)[C@@H](O)[C@H]2O)c(=O)[nH]1 [Guanosine, reference compound]
- rate of enzymatic cleavage by T. vaginalis PNP (T. vaginalis PNP): 14,000 nanomoles per milligrams per hour
- rate of enzymatic cleavage by E. coli PNP (E. coli PNP): 156,000 nanomoles per milligrams per hour

Molecule: 9-β-D-pyranosyl-adenine
- rate of enzymatic cleavage by T. vaginalis PNP (T. vaginalis PNP): 2 nanomoles per milligrams per hour
- rate of enzymatic cleavage by E. coli PNP (E. coli PNP): <1 nanomoles per milligrams per hour

Molecule: Cc1ncnc2c1ncn2[C@@H]1O[C@@H](C)[C@@H](O)[C@H]1O [9-[5-deoxy-α-L-lyxofuranosyl]-6-methylpurine]
- rate of enzymatic cleavage by T. vaginalis PNP (T. vaginalis PNP): 246 nanomoles per milligrams per hour
- rate of enzymatic cleavage by E. coli PNP (E. coli PNP): 20 nanomoles per milligrams per hour

B1: Salmonella typhimurium PNP: purine nucleoside phosphorylase of Salmonella typhimurium (protein, UniProt Q8ZJV7 1-239, looked up)
Purine nucleoside …: MATPHINAEMGDFADVVLMPGDPLRAKHIAETFLENVREVNNVRGMLGFTGTYKGRKISVMGHGMGIPSCSIYTKELITDFGVKKIIRVGSCGAVRMDVKLRDVVIGMGACTDSKVNRIRFKDHDFAAIADFDMVRNAVDAAKALGVDARVGNLFSADLFYSPDGEMFDVMEKYGVLGVEMEAAGIYGVAAEFGAKALTICTVSDHIRTHEQTTAAERQTTFNDMIKIALESVLLGDKE
- MeP-dR rate of cleavage [1]: 9,150 nmoles/mg/hr
- F-araA rate of cleavage [2]: 20 nmol/mg/h
- MeP-dR/F-araA cleavage ratio [2, 3]: 458

B2: E. coli PNP: wild-type E. coli purine nucleoside phosphorylase (protein, UniProt P0ABP8 2-239, looked up)
Purine nucleoside …: ATPHINAEMGDFADVVLMPGDPLRAKYIAETFLEDAREVNNVRGMLGFTGTYKGRKISVMGHGMGIPSCSIYTKELITDFGVKKIIRVGSCGAVLPHVKLRDVVIGMGACTDSKVNRIRFKDHDFAAIADFDMVRNAVDAAKALGIDARVGNLFSADLFYSPDGEMFDVMEKYGILGVEMEAAGIYGVAAEFGAKALTICTVSDHIRTHEQTTAAERQTTFNDMIKIALESVLLGDKE
- MeP-dR rate of cleavage [1]: 528,000 nmoles/mg/hr
- MeP-dR/F-araA cleavage ratio [2]: 422
- F-araA rate of cleavage [2]: 1,250 nmoles/mg/hr

B3: E. Coli PNP mutant M65V (protein, UniProt P0ABP8 2-239, looked up, variant M65V)
Purine nucleoside …: B2 Purine nucleoside … with M64V
- MeP-dR rate of cleavage [1]: 1823 nmol/mg/h
- MeP-dR/F-araA cleavage ratio [2]: 469±52
- F-araA rate of cleavage [2]: 3.9 nmol/mg/h
- MeP-dR/F-araA cleavage ratio [2, 3]: 469
- MeP-dR/F-araA cleavage ratio ([2]; purified enzyme): 593
